What was measured:
Assay type in all cases: cell-based
[1] = target: T1, hKV7.1/KCNE1 (KV7.1) (Homo sapiens, UniProt P51787); assay: two-electrode voltage clamp in Xenopus oocytes, V50 shift
T1 construct: gene KCNQ1; with KCNE1

[2] = target: T1, hKV7.1/KCNE1 (KV7.1); assay: two-electrode voltage clamp in Xenopus oocytes, V50 shift; mutagenesis (R228Q abolishes V50 shift); also active on KV7.[…] alone (EC50 […])
[3] = target: T1, hKV7.1/KCNE1 (KV7.1); assay: two-electrode voltage clamp in Xenopus oocytes, V50 shift at […]
[4] = target: T1, hKV7.1/KCNE1 (KV7.1); assay: two-electrode voltage clamp in Xenopus oocytes, V50 shift (current amplitude EC50 […]); site mutagenesis supported by MD
[5] = target: T1, hKV7.1/KCNE1 (KV7.1); assay: two-electrode voltage clamp in Xenopus oocytes, V50 shift at […] (moderate effect)

T1 sequence (P51787 whole entry): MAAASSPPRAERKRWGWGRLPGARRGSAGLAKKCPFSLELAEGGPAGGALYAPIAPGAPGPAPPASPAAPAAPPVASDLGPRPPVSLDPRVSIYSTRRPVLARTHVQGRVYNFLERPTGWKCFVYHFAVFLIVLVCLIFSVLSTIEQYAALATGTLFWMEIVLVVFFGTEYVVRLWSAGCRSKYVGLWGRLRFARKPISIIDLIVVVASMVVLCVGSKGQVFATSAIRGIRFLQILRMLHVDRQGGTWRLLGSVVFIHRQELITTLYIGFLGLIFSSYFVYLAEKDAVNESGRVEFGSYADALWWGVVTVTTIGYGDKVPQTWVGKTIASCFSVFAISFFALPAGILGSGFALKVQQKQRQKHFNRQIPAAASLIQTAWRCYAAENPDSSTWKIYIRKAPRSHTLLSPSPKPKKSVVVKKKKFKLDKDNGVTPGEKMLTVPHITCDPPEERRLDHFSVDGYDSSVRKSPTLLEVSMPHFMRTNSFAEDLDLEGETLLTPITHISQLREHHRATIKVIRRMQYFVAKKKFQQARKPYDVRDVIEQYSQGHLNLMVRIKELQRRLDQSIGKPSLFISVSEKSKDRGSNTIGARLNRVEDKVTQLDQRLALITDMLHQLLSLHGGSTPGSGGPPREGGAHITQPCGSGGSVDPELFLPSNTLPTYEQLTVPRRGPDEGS

CC/C=C\C/C=C\C/C=C\C/C=C\C/C=C\C/C=C\CCC(=O)NC(CO)C(=O)O (stereo not shown) [DOC-S]
EC50 [1]: 5 µM

CCCCC/C=C\C/C=C\C/C=C\C/C=C\CCCC(=O)N[C@@H](CO)C(=O)O [ARA-S]
EC50 [2]: 9 µM

CCCCC/C=C\C/C=C\C/C=C\C/C=C\CCCC(=O)N[C@@H](C)C(=O)O [NALA]
ΔV50 (mV) [3]: −22.2 mV

CCCCC/C=C\C/C=C\CCCCCCCC(=O)NC(CO)C(=O)O (stereo not shown) [LIN-S]
EC50 [4]: 12 µM

CCCCC/C=C\C/C=C\C/C=C\C/C=C\CCCC(=O)NCCCC(=O)O [NAGABA]
ΔV50 (mV) [5]: −6.7 mV

CCCCC/C=C\C/C=C\C/C=C\C/C=C\CCCC(=O)NCC(=O)O [NAGly]
ΔV50 (mV) [3]: −25.5 mV

CCCCC/C=C\C/C=C\C/C=C\C/C=C\CCCC(=O)N[C@H](CO)C(=O)O [ARA-D-S]
ΔV50 (mV) [3]: −29.0 mV

Reference: paper PMC9958262, “Endocannabinoids enhance hKV7.1/KCNE1 channel function and shorten the cardiac action potential and QT interval” (eBioMedicine, 2023)
